Laboratory results taken from patent US6191152A, “2-(1,2,4-triazole-1-yl)-1,3,4-thiadiazole derivatives having an effect on the C.N.S. and the heart” (EGIS Gyogyszergyar Rt., priority 1997, dated 2001).

Key:
[1] = system: isolated rat thoracic aorta; assay: Vascular relaxing effect in potassium chloride (20 mM KCl) contracted isolated rat thoracic aorta; parameters: species or system rat (male SPRD); conditions: for IC50: Rattus norvegicus, 20 mM KCl contracted strips, 37° C., read-out: IC50 (vascular relaxation in isolated rat thoracic aorta)
Method: 1. Measurement of Vascular Relaxing Effect in Potassium Chloride Contracted Isolated rat Thoracic Aorta
Experiments were performed in thoracic aortas obtained from male SPRD rats weighing 250 to 300 g. Thoracic aortas excised from rats killed by decapitation and ensanguination were cleaned of fat and connective tissue, then were immediately placed in carbogenized TYRODE solution. The composition of the normal TYRODE solution was the following (in mM): NaCl 114.7, KCl 3.7, CaCl2 3.6, MgCl2 0.49, NaHCO3 19.9, NaH2 PO4 0.32, glucose 5.1.
Two mm wide and 20 to 25 mm long strips were cut from the aortas along a helical line at 45° angle. Aortic strips were mounted vertically between two cotton threads in 10 ml organ chambers, the lower threads were attached to the organ chambers and the upper threads were connected to isometric force transducers. The strips were incubated under 1 g resting tension at 37° C. for 120 minutes, then resting vascular tone was recorded. Then the strips were contracted with a TYRODE solution containing 20 mM KCl. The composition of the high potassium TYRODE solution was the following (in mM): NaCl 94.7, KCl 20, CaCl2 3.6, MgCl2 0.49, NaHCO3 19.9, NaH2 PO4 0.32, glucose 5.1.
When stable vascular tone developed, increasing doses of the test substance were added to the organ bath. The effects of each test substance were measured at least in 3 tissue preparations obtained from different animals. Decreases in vascular tension caused by the test substances were expressed as percentage changes and IC50 for each tissue preparation was determined by sigmoid (in few casses linear) curve fitting.
For comparison, cromakalim i.e. (±)-trans-3,4-dihydro-3-hydroxy-2,2-dimethyl-4-(2-oxo-1-pyrrolidinyl)-2H-1-benzopyrane-6-carbonitrile was used.

[2] = system: isolated guinea-pig papillary muscle; assay: Effective refractory period (ERP) prolonging effect in isolated guinea-pig right ventricular papillary muscle, in vitro; parameters: species or system guinea-pig (male); conditions: for ERP change at 10^-4 M / ERP change at 10^-5 M: 30 minutes incubation, mean of at least four preparations
Source text: 2. Measurement of Effective Refracter Period in Guinea-pig Right Ventricular Papillary Muscle, in Vitro.
Effective refracter period (ERP) is regarded to be the shortest time interval between two identical electrical stimuli when both can evoke a twitch in the papillary muscle. A second stimulus applied earlier than the ERP is not effective. Compounds prolonging ERP can have antiarrhythmic effect. This method is useful primarily for testing antiarrhythmic agents belonging to class III according to the Vaughan Williams classification /Bexton, R. S. and Camm. A., J. Pharmacol. Ther., 17, 315 (1982)/.
Experiments were performed in a Schuler-type organ bath system having 4 channels. Male guinea-pigs weighing 450 to 750 g were killed by a blow on the head and ensanguinated. The heart was rapidly excised and papillary muscles of appropriate size (lower than 1 mm in diameter) were dissected from the right ventricle. The preparations were vertically mounted in 20 ml organ chambers containing Krebs solution bubbled with carbogen (consisting of 95% of O2 and 5% of CO2) and maintained at 35° C. The upper end of the muscles was connected with cotton threads to force-displacement transducers coupled to a recorder for measuring isometric tension via DC-bridge amplifiers. The lower end of the papillary muscles was pinned to the organ chamber with a silver hook that was also used as a stimulating electrode. The other electrode was immersed into the organ bath and had no direct contact with the preparation. The composition of the Krebs solution was the following (in mm): NaCl 118, KCl 4.8, NaHCO3 27.2, glucose 11.1, MgSO4 1.2, KH2 PO4 1, CaCl2 2.6, pH=7.4.
The preparations were equilibrated for 120 minutes under a resting tension of 1 g. During equilibration they were electrically stimulated at a rate of 2 Hz with 1 msec rectangular pulses that were above the diastolic threshold voltage by 10%. ERP was determined using a standard extrastimulus technique. Extrastimuli (S2) were interjected between the normal stimuli (S1) in such a way that the S1 -S2 interval was initially below the refracter period of the tissue. The S1 -S2 interval was then widened by increments of 1 msec until the extrastimulus (S2) evoked twitch of the papillary muscle. The force of the twitch caused by S2 is larger than those caused by normal (S1) stimuli (postextrasystolic potentiation). The equipment measured the shortest S1 -S2 interval at which the extrastimulus evoked a twitch that was larger than the force of control twitches by 25%. This interval is equivalent with the ERP.
The experimental protocol was as follows:
Two control ERP measurements were performed 20 minutes apart, then appropriate amount of the test substance was added to produce 10^-4 M concentration in the bathing solution. After 30 minutes incubation with the test substance, two ERP measurements were performed 30 minutes apart.
When the test substance increased ERP at 10^-4 M by 40 msec or more, its effect on ERP was tested also at 10^-5 M.
The effect of the test substances was characterized by the difference between the first treated and the second control measurements. Individual data obtained from four different preparations, at least, were averaged. The reference substance used was sotalol i.e. N-[4-/1-hydroxy-2-(1-methylethylamino)ethyl/plenyl]methane sulfonamide.

IC50 [1]	Compound	vascular relaxation of isolated rat thoracic aorta (in words) [1]	ERP prolongation (in words) [2]	ERP change at 10^-4 M [2]	ERP change at 10^-5 M [2]
71 nM	CN(C)CCCOc1ccccc1-c1nnc(-n2nc(N(C)C)nc2N)s1 [Example 29, 2-(5-Amino-3-dimethylamino-1H-1,2,4-triazole-1-yl)-5-/ 2-(3-dimethylaminopropoxy)phenyl/-1,3,4-thiadiazole]	relaxed isolated rat thoracic aorta more effectively than the K^+ channel opener and Ca^2+ channel blocker reference substances			
68 nM	CC(C)Sc1nc(N)n(-c2nnc(-c3ccccc3OCCCN(C)C)s2)n1 [Example 30, 2-/5-Amino-3-(2-methylethylthio)-1H-1,2,4-triazole-1-yl/-5-/ 2-(3-dimethylaminopropoxy)phenyl/-1,3,4-thiadiazole]	relaxed isolated rat thoracic aorta more effectively than the K^+ channel opener and Ca^2+ channel blocker reference substances			
	CN(C)CCCOc1ccccc1-c1nnc(-n2nc(N3CCCCC3)nc2N)s1 [Example 32, 2-(5-Amino-3-piperidino-1H-1,2,4-triazole-1-yl)-5-/ 2-(3-dimethylaminopropoxy)phenyl/-1,3,4-thiadiazole]		remarkable also at 10^-5 M	155 msec	158 msec
	CCN(CC)CCOc1ccc(-c2nnc(-n3nc(SC)nc3N)s2)cc1 [Example 36, 2-(5-Amino-3-methylthio-1H-1,2,4-triazole-1-yl)-5-/ 4-(2-diethylaminoethoxy)phenyl/-1,3,4-thiadiazole]			53 msec	15 msec
	CSc1nc(N)n(-c2nnc(-c3ccccc3OCCCN3CCCC3)s2)n1 [Example 43, 2-(5-Amino-3-methylthio-1H-1,2,4-triazole-1-yl)-5-/ 2-(3-pyrrolidinopropoxy)phenyl/-1,3,4-thiadiazole]			66 msec	34 msec
	CN(C)CCCOc1ccc(-c2nnc(-n3nc(N4CCN(C)CC4)nc3N)s2)cc1 [Example 47, 2-/5-Amino-3-(4-methylpiperazine-1-yl)-1H-1,2,4-triazole-1-yl/-5-/ 4-(3-dimethylaminopropoxy)phenyl/-1,3,4-thiadiazole]			123 msec	2 msec
170 nM	C=CCN(CC=C)c1nc(N)n(-c2nnc(-c3ccccc3OCCCN(C)C)s2)n1 [Example 49, 2-(5-Amino-3-diallylamino-1H-1,2,4-triazole-1-yl)-5-/ 2-(3-dimethylaminopropoxy)phenyl/-1,3,4-thiadiazole]				
130 nM	COc1ccc(CCN(C)CCCOc2ccccc2-c2nnc(-n3nc(N4CCCCC4)nc3N)s2)cc1OC [Example 99, 2-(5-Amino-3-piperidino-1H-1,2,4-triazole-1-yl)-5-{2-[3-methyl-3-/ 2-(3,4-dimethoxyphenylethyl)amino/-propoxy]phenyl}-1,3,4-thiadiazole]				
75 nM	COc1ccc(CCN(C)CCCOc2ccccc2-c2nnc(-n3nc(SC(C)C)nc3N)s2)cc1OC [Example 101, 2-/5-Amino-3-(1-methylethylthio)-1H-1,2,4-triazole-1-yl/-5-{2-[3-methyl-3-/2-(3,4-dimethoxyphenylethyl)amino/propoxy]-phenyl}-1,3,4-thiadiazole]	relaxed isolated rat thoracic aorta more effectively than the K^+ channel opener and Ca^2+ channel blocker reference substances			
> 1000 nM	COc1ccc(CCN(C)CCCOc2cccc(-c3nnc(-n4nc(SC)nc4N)s3)c2)cc1OC [Example 105, 2-(5-Amino-3-methylthio-1H-1,2,4-triazole-1-yl)-5-{3-[3-methyl-3-/ 2-(3,4-dimethoxyphenylethyl)amino/propoxy]phenyl}-1,3,4-thiadiazole]			62 msec	14 msec
> 10000 nM	COc1ccc(CCN(C)CCCOc2ccc(-c3nnc(-n4nc(SC)nc4N)s3)cc2)cc1OC [Example 108, 2-(5-Amino-3-methylthio-1H-1,2,4-triazole-1-yl)-5-{4-[3-methyl-3-/ 2-(3,4-dimethoxyphenylethyl)amino/propoxy]phenyl}-1,3,4-thiadiazole]			66 msec	29 msec
	CC(C)NCC(O)c1ccc(NS(C)(=O)=O)cc1 (centres unmarked) [sotalol, N-[4-/1-hydroxy-2-(1-methylethylamino)ethyl/plenyl]methane sulfonamide, reference compound]			47 msec	26 msec

Compound	IC50 [1]	vascular relaxation of isolated rat thoracic aorta (in words) [1]	ERP prolongation (in words) [2]	ERP change at 10^-4 M [2]	ERP change at 10^-5 M [2]
CC1(C)Oc2ccc(C#N)cc2[C@@H](N2CCCC2=O)[C@@H]1O (racemic) [cromakalim, (±)-trans-3,4-dihydro-3-hydroxy-2,2-dimethyl-4-(2-oxo-1-pyrrolidinyl)-2H-1-benzopyrane-6-carbonitrile, reference compound]	130 nM				
